The source of these data is the NIST ThermoML archive (doi:10.1021/je700350b).

For data set [1] the following is noted: 101.33 kPa, Liquid, Vibrating tube method.
Data set [2] in a line: xn = mol fraction of the nth substance listed. Particulars: x2 = 0; for surface tension liquid-gas: Ring tensiometer; for viscosity: 101.33 kPa, Liquid.

± gives the expanded uncertainty stated by the source.

Broadly, the mass density is mass per unit of volume. Regarding `CCN(CC)CCO` [(diethylamino)ethanol], the figures for the mass density in data set [1] (293.15 K) and in data set [1] (298.15 K) were 884.14 ± 0.3 kg/m3 and 879.5 ± 0.3 kg/m3, respectively.

The surface tension liquid-gas is the work needed to enlarge the surface of a liquid by unit area. The term viscosity denotes the resistance of a fluid to flow. `O` [water] + CCN(CC)CCO: the surface tension liquid-gas in data set [2] (283.15 K) is 73.74 ± 2.3 mN/m; in data set [2] (288.15 K), 73.14 ± 2.2 mN/m; in data set [2] (293.15 K), 72.59 ± 2.2 mN/m; in data set [2] (298.15 K), 71.84 ± 2.2 mN/m; in data set [2] (303.15 K), 71.2 ± 0.98 mN/m. The viscosity was determined as 0.89 ± 0.014 mPa·s in data set [2] (298.15 K) and 0.794 ± 0.013 mPa·s in data set [2] (303.15 K).
